Results as given in patent US6686145B1, “Rigidized trimethine cyanine dyes” (Carnegie Mellon University, priority 1997, dated 2004).
Blank lines part the entries; values can stand above or below the compound they belong to. Where no end group is shown, it is not given here. [ ]: non-standard residue; d: D form. Compound III = 6,7,9,10-tetrahydro-2-carboxymethyl-14-sulphonato-16,16,18,18-tetramethyl-7aH,8aH-bisindolinium[3,2-a,3'2'-a']pyrano[3,2-c,5,6-c']dipyridin-5-ium dye (NHS ester used for labelling); {C7NH2-CompoundIII} = C7 amino linker labelled with Compound III NHS ester; pY = N[C@@H](Cc1ccc(OP(=O)(O)O)cc1)C(=O)O

Legend:
[1] = Comparison of spectral properties of rigidized Cy3 and open chain Cy3 dyes; assay type: physicochemical
From the text: The spectral properties of the rigidized dye were compared with the known open chain Cy3.18.OH and Cy3.10.OH dyes (FIG. 2). The absorption maxima of the rigid dye shifted to the red by 12 nm in methanol and as expected it is 10-12 time brighter that the non-rigidized indocyanines.

[2] = target: Grb2 glutathione-S-transferase fusion protein (Homo sapiens, UniProt P62993); experiment: Protein:peptide polarization binding assay; conditions: non-specific binding defined with 100 μM unlabelled peptide, 60 minutes
Method: A peptide of sequence E-pY-I-N-Q-S-V-P-K (E9K) was prepared by solid phase synthesis on an Applied Biosystems 431A peptide synthesizer using standard methods and materials. An excess of 6,7,9,10-tetrahydro-2-carboxymethyl-14-sulphonato-16,16,18,18-tetramethyl-7aH,8aH-bisindolinium[3,2-a;3′2′-a′]pyrano[3,2-c;5,6-c′]dipyridin-5-ium (Compound III), N-hydroxysuccinimide ester was coupled in DMSO in the presence of diisopropylethylamine to the free N-terminus of the protected peptide whilst still attached to the solid phase. After deprotection for two hours, the crude labelled peptide was purified by reverse phase HPLC, using a gradient from water/0.1%TFA to water:acetonitrile (40:60)/0.1%TFA over 60 minutes.
Various concentrations of Grb2 glutathione-S-transferase fusion protein and E9K labelled with Compound III in 20 mM MOPS pH7.4/10 mM DTT/005% Tween 20 were incubated in a final volume of 150 μl in black 96-well microplates (Dynatech) for 60 minutes. […] Polarization values were read on a Fluorolite FPM2™ plate reader (Jolley Research and Consulting Inc.) using a 530DF30 filter for excitation and 590DF45 filter for emission.

[3] = test system: complementary probe oligonucleotide; experiment: Nucleic acid FRET hybridization assay; assay type: binding; conditions: 560 nm excitation, 670 nm emission
Method: The oligonucleotides were deprotected for 17 hours at 40° C. and purified by reverse phase HPLC using a C18 column and a 40% TEAA/acetonitrile gradient. The desired peaks were collected, freeze dried and the samples were resuspended in sterile H2O.
Amino modified target and probe oligonucleotides were incubated with a 10-fold molar excess of 6,7,9,10-tetrahydro-2-carboxymethyl-14-sulphonato-16,16,18,18-tetramethyl-7aH,8aH-bisindolinium[3,2-a;3′2′-a′]pyrano[3,2-c;5,6-c′]dipyridin-5-ium (Compound III), N-hydroxysuccinimide ester and Cy5 NHS-ester dye (Amersham Pharmacia Biotech) respectively, in 0.1M sodium bicarbonate buffer (pH9), overnight at 22° C. The following morning, the oligonucleotides were ethanol precipitated and the resulting pellets were resuspended in H2O. […] Residues were resuspended into H2O and concentration of recovered material was determined.
Wells of a black, streptavidin coated 96-well plate were coated with either unlabelled or Compound III-labelled target oligonucleotides (20 pmol/well diluted in 100 μl PBS/1 MgCl2) for 120 minutes at ambient temperature. […] Finally, wells were washed vigorously with PBS and fluorescence intensity was measured on a fluorescence plate reader using a 560 nm excitation filter and a 670 nm emission filter (FIG. 7).

[4] = test system: NF-kB-specific double stranded (ds) DNA; experiment: Protein:DNA FRET binding assay; conditions: competitor 200 pmol/well (10 fold molar excess for p65), Ex520/Em670
Method: All HPLC purified NF-kB-specific oligonucleotides were obtained from Genosys Biotechnologies Ltd: a coding strand modified with a 5′ terminal primary amine (5′ NH2-[…] 3′) and an unmodified non-coding strand (5′ […] 3′). A 10-fold molar excess of Cy-5-NHS ester dye (Amersham Pharmacia Biotech) was incubated with the coding strand, in 0.1M sodium bicarbonate buffer (pH9), overnight at 22° C. The following morning the oligonucleotide was ethanol precipitated and then resuspended in water. The labelled coding strand was purified by reverse phase HPLC using a C18 column and a 60% TEAA/acetonitrile gradient. The peak containing labelled oligonucleotide was freeze dried and resuspended in water.
NF-kB-specific double stranded (ds) DNA was generated by incubating together equimolar amounts of the Cy-5 labelled coding strand (5′ Cy5-[…] […] 3′) and the unmodified non-coding strand (5′ […] […] 3′) in a boiling water bath for 3 minutes and allowing to anneal by cooling over 2 hours.
NF-kB p65 protein ([…]) was diluted to 1000 μl in 0.01M phosphate buffered saline. […]
A black microtitre plate (Dynatech) was used for the FRET assay. […] The plate was read at Ex520/Em670 in the Biolumin 960 fluorescence microplate reader (Molecular Dynamics Inc.).

NF-kB-specific dsDNA = experiment: Protein:DNA direct intensity binding assay; conditions: competitor 200 pmol/well (40 fold molar excess for p65) versus p65GST
Method: All HPLC purified oligonucleotides were obtained from Genosys Biotechnologies Ltd. Equimolar amounts of a biotinylated coding strand (5′ Biotin-[…] CCGCG 3′) and an unmodified non-coding strand (5′ […] 3′) specific for NF-kB were incubated together in a boiling water bath for 3 minutes and allowed to anneal by cooling over 2 hours.
Anti-GST antibody (3 mg/ml, 1.5 mg supplied/vial (0.5 ml) from Molecular Probes) was dialysed against 1 litre of 0.15M sodium chloride for 4 hours at room temperature and dialysis was continued overnight at 4° C. in a fresh solution of 0.15M sodium chloride. The following morning the antibody was dialysed against 1 litre of 0.1M sodium hydrogen carbonate for a maximum of 4 hours.
A 1 mg/ml solution of 6,7,9,10-tetrahydro-2-carboxymethyl-14-sulphonato-16,16,18,18-tetramethyl-7aH,8aH-bisindolinium[3,2-a;3′2′-a′]pyrano[3,2-c;5,6-c′]dipyridin-5-ium (Compound III), N-hydroxysuccinimide ester in DMSO was added gradually with stirring to the antibody at a ratio of 0.10 mg dye: 0.33 mg antibody. […]
Biotin-labelled NF-kB-specific dsDNA (2.5 pmol, diluted in 0.01 MMgCl2) was added to each well (final volume, 100 μl) of a 96-well streptavidin coated microplate (Boehringer Mannheim) and incubated at room temperature for 2 hours. […] The plate was read at Ex535/Em569 and Ex560/595 in the Biolumin 960 fluorescence microplate reader (Molecular Dynamics Inc.).

Compound: Compound III-labelled peptide: peptide E-pY-I-N-Q-S-V-P-K (E9K) labelled at the free N-terminus with Compound III ({Compound III}-E[pY]INQSVPK)
binding to Grb2 protein as determined by change in polarization [2]: specific binding

Compound: Compound III-labelled target oligonucleotide: 5′ C7 amino-modified TAC CCA GAC GAG CAA-biotin 3′ labelled with Compound III NHS ester (DNA TACCCAGACGAGCAA; DNA, 5' {C7NH2-CompoundIII}, 3' {Biotin}, backbone not given here)
fluorescence signal (FRET) ([3]; incubated with Cy5-labelled probe): strong fluorescence signal | fluorescence signal (FRET) ([3]; incubated with unlabelled probe): low fluorescence signals

Compound: p65: NF-kB p65 protein, specific competitor
reduction of the total signal [4]: 40% | reduction of the total signal (NF-kB-specific dsDNA): approximately 90%

Results, then the compound that gave them:

QY (Φ) ([1]; dye in methanol): 0.8 | λmax ([1]; dye in methanol): 565 | absorption maxima shifted to the red ([1]; in methanol, versus open chain Cy3 dyes): 12 nm | brightness relative to the non-rigidized indocyanines ([1]; versus non-rigidized indocyanines): 10-12 time
Compound: CC1(C)C2=C3C=C4C5=[N+](CCC4OC3CCN2c2ccc(CC(=O)O)cc21)c1ccc(CC(=O)O)cc1C5(C)C (centres unmarked) [Compound I, 6,7,9,10-Tetrahydro-2,14-carboxymethyl-16,16,18,18-tetramethyl-7aH,8aH-bisindolinium[3,2-a;3′2′-a′]pyrano[3,2-c;5,6-c′]dipyridin-5-ium]

reduction of the total signal [4]: no effect | reduction of the total signal (NF-kB-specific dsDNA): 25%
Compound: casein
